Measured values as given in paper PMC9789040, “Inhibition of triple negative breast cancer-associated inflammation and progression by N- acylethanolamine acid amide hydrolase (NAAA)” (Scientific Reports, 2022).

Target: T1, N-acylethanolamine acid amidase (NAAA) (Homo sapiens, UniProt Q02083)
T1 construct: purified human NAAA
T1 sequence (Q02083 29-125): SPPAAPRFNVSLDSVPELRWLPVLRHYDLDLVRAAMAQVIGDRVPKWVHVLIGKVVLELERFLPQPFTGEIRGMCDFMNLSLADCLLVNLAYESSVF
T1 sequence (Q02083 126-359): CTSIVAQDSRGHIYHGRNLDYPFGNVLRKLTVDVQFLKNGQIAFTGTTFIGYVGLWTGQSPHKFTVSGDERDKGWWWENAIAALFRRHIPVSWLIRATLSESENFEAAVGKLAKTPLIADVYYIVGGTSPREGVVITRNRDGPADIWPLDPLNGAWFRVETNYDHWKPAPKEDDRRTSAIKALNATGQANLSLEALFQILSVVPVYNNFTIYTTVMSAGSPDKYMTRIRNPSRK
Assay: fluorogenic PAMCA hydrolysis assay with purified human NAAA, […] min preincubation, 8-point curve
Format: biochemical

Question: With `COc1ccc(-c2ccc(COC3CC(N=C=S)C3)nc2)cc1F` (stereo not shown) [AM11095] as the compound, how does the IC50 read?
Answer: The IC50 was 20 nM.
